From patent US12311058B2, “Single protein-encapsulated pharmaceutics for enhancing therapeutic effects” (priority 2018, dated 2025)

Columns and labels:
[1] = tested on: breast cancer cell line, MDA-MB231; assay: Xenograft model efficacy study, breast cancer MDA-MB231, in female athymic nude mice; settings: iv; for % TGI, percent tumor growth inhibition compared to Group 1 / MTV (n) Day 20, median tumor volume: Doxorubicin 5, Composition 7 10, Mitoxantrone 3, Composition 6 6 mg/kg, Day 20
Protocol: An efficacy study against breast cancer tumor was carried out on the materials from Example 8 (Composition 7) and Example 7 (Composition 6).

[2] = mouse model, documented; cited from earlier work
[3] = Dialysis study on free form of doxorubicin, HSA/DOX mixture and Composition 7; type: physicochemical; settings: PBS pH=7.4
Protocol: The dialysis tube was sealed and put into a glass beaker containing 100 mL of either PBS buffer (pH=7.4) or acetate buffer (pH=5.5) with a magnetic stirring bar. With constant stirring, aliquots (500 uL) at different time points were taken from the glass beaker and analyzed by UV spectrometer. […] It is most interesting to notice that HSA-encapsulated DOX is almost 3.5 times faster at pH=5.5 than at pH=7.4 for being dialyzed out from the dialysis tube.

[4] = congestive heart failure incidents; cited from earlier work

| SMILES | Deaths NTR (non-treatment-related death) ([1]; qwk × 3, 20 day study) | Deaths TR (treatment-related death) ([1]; qwk × 3, 20 day study) | Mean BW Nadir, lowest group mean body weight as % change from Day 1 ([1]; qwk × 3, 20 day study) | Regressions CR (complete regression) ([1]; qwk × 3, 20 day study) | Regressions PR (partial regression) ([1]; qwk × 3, 20 day study) | % TGI, percent tumor growth inhibition compared to Group 1 ([1]; qwk × 3) | MTV (n) Day 20, median tumor volume ([1]; qwk × 3) | Day of Mean BW Nadir ([1]; mouse, in vivo) | Maximum tolerated dose (MTD) [2] | Dialysis behaviour of free form [3] | Lifetime limit (cumulative dose) [4] |
| --- | --- | --- | --- | --- | --- | --- | --- | --- | --- | --- | --- |
| O=C1c2c(O)ccc(O)c2C(=O)c2c(NCCNCCO)ccc(NCCNCCO)c21 [Mitoxantrone, mitoxantrone] | 0 | 0 | −0.2% | 0 | 0 | 27% | 498 (8) mm^2 | 8 days | 3 mg/kg |  |  |
| COc1cccc2c1C(=O)c1c(O)c3c(c(O)c1C2=O)C[C@@](O)(C(=O)CO)C[C@@H]3O[C@H]1C[C@H](N)[C@H](O)[C@H](C)O1 [Doxorubicin, doxorubicin] | 0 | 0 |  | 0 | 0 | 34% | 453 (8) mm^2 |  | 5 mg/kg | precipitated in the dialysis bag due to the poor solubility at pH=7.4 | < 450 mg/m^2 |
